# The source made the active and inactive calls. No cut-off for these calls is given here.
# Experiments:
# [1] = Tmax in BALB/c mouse at 10 mg/kg, po measured upto 8 hrs by LC-MS-MS analysis; type: ADME, organism-based; conditions: in vivo
# [2] = target: T1, Tyrosine-protein kinase ITK/TSK (Homo sapiens) (UniProt Q08881); test: Inhibition of recombinant human EMT at 100 uM
# T1 sequence (whole entry): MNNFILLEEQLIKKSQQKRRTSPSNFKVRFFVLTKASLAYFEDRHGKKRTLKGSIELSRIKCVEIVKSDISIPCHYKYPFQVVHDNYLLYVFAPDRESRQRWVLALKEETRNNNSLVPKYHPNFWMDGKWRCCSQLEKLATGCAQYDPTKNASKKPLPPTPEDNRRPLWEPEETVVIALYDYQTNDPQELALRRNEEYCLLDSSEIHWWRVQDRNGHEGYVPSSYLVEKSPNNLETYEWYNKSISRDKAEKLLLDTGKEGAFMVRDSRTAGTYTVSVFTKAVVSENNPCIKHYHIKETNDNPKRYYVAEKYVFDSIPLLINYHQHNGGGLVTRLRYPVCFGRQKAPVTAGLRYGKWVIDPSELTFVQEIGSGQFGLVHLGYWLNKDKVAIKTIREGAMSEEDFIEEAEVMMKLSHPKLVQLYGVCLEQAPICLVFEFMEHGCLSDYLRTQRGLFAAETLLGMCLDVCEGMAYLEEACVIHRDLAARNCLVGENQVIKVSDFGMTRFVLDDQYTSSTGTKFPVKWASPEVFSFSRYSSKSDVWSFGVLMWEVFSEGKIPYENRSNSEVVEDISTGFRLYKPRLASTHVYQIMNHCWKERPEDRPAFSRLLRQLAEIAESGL
# [3] = target: Insulin-like growth factor 1 receptor (Homo sapiens) (UniProt P08069); test: Inhibition of recombinant human IGF1R at 100 uM
# [4] = target: T2, Protein kinase C zeta type (Homo sapiens) (UniProt Q05513); test: Inhibition of recombinant human PKCzeta at 100 uM
# T2 sequence (whole entry): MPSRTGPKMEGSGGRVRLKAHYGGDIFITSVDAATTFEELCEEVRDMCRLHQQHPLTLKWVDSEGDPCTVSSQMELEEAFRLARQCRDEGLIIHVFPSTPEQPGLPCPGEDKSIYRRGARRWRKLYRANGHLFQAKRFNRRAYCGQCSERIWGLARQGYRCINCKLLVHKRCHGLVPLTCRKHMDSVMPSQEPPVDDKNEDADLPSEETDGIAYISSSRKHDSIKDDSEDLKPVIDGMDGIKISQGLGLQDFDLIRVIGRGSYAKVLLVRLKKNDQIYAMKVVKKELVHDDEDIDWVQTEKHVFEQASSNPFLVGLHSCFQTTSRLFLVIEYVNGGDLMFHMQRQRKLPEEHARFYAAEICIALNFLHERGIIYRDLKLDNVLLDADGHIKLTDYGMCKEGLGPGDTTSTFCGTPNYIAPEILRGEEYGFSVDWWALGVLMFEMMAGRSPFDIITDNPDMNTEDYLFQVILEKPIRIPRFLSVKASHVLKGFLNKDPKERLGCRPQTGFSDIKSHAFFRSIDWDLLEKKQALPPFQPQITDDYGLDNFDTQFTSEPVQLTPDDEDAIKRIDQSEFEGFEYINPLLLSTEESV
# [5] = Total clearance in BALB/c mouse at 2 mg/kg, iv measured upto 8 hrs by LC-MS-MS analysis; type: ADME, organism-based; conditions: in vivo
# [6] = target: MAP kinase-activated protein kinase 2 (Homo sapiens) (UniProt P49137); test: Inhibition of recombinant human MAPKAPK2 at 100 uM
# Chain of MAP kinase-activated protein kinase 2 (Homo sapiens) (P49137 whole entry, looked up): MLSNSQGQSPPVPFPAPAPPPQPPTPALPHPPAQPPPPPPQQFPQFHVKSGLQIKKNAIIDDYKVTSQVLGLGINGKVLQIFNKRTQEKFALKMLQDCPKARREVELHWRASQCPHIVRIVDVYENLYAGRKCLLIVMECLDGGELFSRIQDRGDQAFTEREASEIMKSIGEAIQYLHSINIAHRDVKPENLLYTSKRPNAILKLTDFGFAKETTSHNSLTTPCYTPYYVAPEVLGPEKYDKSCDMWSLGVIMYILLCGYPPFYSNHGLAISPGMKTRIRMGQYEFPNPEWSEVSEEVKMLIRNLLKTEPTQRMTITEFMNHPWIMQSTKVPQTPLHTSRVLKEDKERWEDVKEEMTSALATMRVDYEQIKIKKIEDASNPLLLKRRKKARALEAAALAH
# [7] = target: Receptor tyrosine-protein kinase erbB-2 (Homo sapiens) (UniProt P04626); test: Inhibition of recombinant human Her2 at 100 uM
# [8] = target: Mitogen-activated protein kinase 1 (Homo sapiens) (UniProt P28482); test: Inhibition of recombinant human ERK2 at 100 uM
# Chain of Mitogen-activated protein kinase 1 (Homo sapiens) (P28482 whole entry): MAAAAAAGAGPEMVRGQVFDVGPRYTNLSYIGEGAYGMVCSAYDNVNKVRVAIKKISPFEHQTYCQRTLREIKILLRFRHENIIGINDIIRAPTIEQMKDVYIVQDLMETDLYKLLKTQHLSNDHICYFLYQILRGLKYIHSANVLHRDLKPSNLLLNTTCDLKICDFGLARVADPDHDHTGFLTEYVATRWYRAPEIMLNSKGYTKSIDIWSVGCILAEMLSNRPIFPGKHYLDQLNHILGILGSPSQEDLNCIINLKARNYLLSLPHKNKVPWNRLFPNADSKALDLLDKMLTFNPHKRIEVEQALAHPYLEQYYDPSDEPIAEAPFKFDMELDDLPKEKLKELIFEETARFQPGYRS
# [9] = target: Protein kinase C alpha type (Homo sapiens) (UniProt P17252); test: Inhibition of recombinant human PKCalpha at 100 uM
# THP-1 [10] = test: Antiinflammatory activity against LPS-induced human THP-1 cells assessed as reduction in IL-8 cytokine level preincubated for 1 hr followed by LPS-stimulation and measured after 6 hrs by enzyme immunoassay; type: functional, cell-based
# [11] = Half life in BALB/c mouse at 2 mg/kg, iv measured upto 8 hrs by LC-MS-MS analysis; type: ADME, organism-based; conditions: in vivo
# [12] = Aqueous solubility of compound; type: physicochemical; conditions: buffer
# [13] = Oral bioavailability in BALB/c mouse at 10 mg/kg measured upto 8 hrs by LC-MS-MS analysis; type: ADME, organism-based; conditions: in vivo
# THP-1 [14] = test: Antiinflammatory activity against LPS-induced human THP-1 cells assessed as reduction in TNFalpha cytokine level preincubated for 1 hr followed by LPS-stimulation and measured after 6 hrs by enzyme immunoassay; type: functional, cell-based
# [15] = target: Epidermal growth factor receptor (Homo sapiens) (UniProt P00533); test: Inhibition of recombinant human Her1 at 100 uM
# Chain of Epidermal growth factor receptor (Homo sapiens) (P00533 whole entry): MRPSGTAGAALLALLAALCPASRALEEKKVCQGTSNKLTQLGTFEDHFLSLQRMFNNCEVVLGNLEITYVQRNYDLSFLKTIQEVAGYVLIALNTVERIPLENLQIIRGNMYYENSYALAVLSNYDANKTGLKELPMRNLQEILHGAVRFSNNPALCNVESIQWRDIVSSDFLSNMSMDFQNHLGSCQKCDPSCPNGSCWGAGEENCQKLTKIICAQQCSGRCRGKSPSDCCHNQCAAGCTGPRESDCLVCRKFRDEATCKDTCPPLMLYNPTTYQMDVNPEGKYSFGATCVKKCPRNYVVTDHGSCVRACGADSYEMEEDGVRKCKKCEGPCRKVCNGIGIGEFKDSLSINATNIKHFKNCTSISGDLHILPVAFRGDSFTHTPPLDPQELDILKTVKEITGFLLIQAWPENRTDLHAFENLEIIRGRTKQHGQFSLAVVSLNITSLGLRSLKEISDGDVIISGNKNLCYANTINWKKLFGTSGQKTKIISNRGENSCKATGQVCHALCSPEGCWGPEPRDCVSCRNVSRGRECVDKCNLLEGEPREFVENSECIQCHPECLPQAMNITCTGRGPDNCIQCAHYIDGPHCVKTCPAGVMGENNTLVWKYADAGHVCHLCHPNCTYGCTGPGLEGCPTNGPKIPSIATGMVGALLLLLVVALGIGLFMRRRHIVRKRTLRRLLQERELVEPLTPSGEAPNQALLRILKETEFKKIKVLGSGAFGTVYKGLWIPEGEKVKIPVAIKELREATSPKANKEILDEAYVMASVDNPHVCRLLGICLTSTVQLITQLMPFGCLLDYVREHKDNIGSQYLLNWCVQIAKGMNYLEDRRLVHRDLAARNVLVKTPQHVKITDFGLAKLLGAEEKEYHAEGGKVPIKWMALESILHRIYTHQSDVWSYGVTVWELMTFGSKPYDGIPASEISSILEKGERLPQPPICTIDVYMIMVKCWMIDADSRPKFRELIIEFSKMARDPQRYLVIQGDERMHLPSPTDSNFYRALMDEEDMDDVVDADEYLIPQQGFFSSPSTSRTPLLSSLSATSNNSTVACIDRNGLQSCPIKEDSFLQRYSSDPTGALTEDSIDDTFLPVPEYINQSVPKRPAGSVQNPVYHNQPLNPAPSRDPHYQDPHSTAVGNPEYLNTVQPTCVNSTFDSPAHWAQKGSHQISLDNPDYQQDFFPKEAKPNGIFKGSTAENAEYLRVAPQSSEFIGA
# [16] = target: T3, Tyrosine-protein kinase JAK3 (Homo sapiens) (UniProt P52333); test: Inhibition of recombinant human JAK3 at 100 uM
# T3 sequence (whole entry): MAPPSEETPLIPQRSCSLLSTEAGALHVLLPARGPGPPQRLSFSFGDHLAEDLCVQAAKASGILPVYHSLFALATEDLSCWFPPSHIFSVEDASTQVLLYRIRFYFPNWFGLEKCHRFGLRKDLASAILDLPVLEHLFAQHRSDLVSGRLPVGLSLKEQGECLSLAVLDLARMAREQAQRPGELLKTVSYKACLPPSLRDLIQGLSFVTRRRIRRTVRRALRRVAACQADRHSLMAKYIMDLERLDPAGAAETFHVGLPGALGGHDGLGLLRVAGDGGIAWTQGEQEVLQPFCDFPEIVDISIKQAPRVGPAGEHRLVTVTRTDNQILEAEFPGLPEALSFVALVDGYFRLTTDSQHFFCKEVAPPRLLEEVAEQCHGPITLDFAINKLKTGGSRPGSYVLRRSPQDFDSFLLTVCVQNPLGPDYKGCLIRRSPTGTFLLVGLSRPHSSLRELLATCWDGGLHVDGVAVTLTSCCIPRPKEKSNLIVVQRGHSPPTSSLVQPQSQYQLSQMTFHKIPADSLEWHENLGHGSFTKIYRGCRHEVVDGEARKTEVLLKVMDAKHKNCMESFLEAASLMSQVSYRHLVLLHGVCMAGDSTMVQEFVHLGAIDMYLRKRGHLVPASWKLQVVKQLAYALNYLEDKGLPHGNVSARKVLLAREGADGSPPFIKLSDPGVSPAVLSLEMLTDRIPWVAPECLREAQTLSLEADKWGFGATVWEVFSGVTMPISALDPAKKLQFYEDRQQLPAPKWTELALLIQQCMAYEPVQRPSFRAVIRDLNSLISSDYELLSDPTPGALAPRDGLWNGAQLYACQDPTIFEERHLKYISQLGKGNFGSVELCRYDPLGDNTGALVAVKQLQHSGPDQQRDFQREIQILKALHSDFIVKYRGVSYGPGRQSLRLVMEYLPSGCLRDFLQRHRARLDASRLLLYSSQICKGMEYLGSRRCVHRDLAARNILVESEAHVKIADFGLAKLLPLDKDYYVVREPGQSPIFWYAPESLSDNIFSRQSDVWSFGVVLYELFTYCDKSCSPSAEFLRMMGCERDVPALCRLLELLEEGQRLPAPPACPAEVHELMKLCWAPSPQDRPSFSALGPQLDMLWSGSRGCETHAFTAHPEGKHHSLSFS
# Mus musculus [17] = test: Antiinflammatory activity against LPS-induced po dosed BALB/c mouse assessed as reduction in TNFalpha cytokine level pretreated for 1 hr followed by LPS-stimulation and measured after 90mins by enzyme immunoassay; type: functional, organism-based; conditions: dose 1-100 mg/kg, time 150.0 min
# [18] = target: Mitogen-activated protein kinase 14 (Homo sapiens) (UniProt Q16539); test: Inhibition of recombinant human P38alpha at 100 uM
# Chain of Mitogen-activated protein kinase 14 (Homo sapiens) (Q16539 whole entry): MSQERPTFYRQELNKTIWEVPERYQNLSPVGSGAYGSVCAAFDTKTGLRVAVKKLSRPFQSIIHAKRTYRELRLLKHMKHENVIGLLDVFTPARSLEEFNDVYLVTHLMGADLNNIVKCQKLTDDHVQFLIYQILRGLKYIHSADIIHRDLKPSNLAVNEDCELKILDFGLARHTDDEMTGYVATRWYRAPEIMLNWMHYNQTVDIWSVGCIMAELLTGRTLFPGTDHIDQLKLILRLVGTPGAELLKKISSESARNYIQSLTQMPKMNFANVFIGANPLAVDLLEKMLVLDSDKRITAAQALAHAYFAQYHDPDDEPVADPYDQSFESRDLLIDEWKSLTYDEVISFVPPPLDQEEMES
# Mus musculus [19] = test: Antiinflammatory activity against LPS-induced BALB/c mouse assessed as reduction in TNFalpha cytokine level at 100 mg/kg, po pretreated for 1 hr followed by LPS-stimulation and measured after 90mins by enzyme immunoassay; type: functional; design: scale not given: the % may be the effect or the level left; conditions: time 150 min, 2.5 h
# [20] = Volume of distribution at steady state in BALB/c mouse at 2 mg/kg, iv measured upto 8 hrs by LC-MS-MS analysis; type: ADME, organism-based; conditions: in vivo, read-out: Vdss
# [21] = target: T4, Inhibitor of nuclear factor kappa-B kinase subunit epsilon (Homo sapiens) (UniProt Q14164); test: Inhibition of GST-tagged IKKE (unknown origin) expressed in High five cells using LDDRHDSGLDSMKDEEY as substrate incubated for 5 mins in presence of [gamma33P]ATP by liquid scintillation counter analysis
# T4 sequence (whole entry): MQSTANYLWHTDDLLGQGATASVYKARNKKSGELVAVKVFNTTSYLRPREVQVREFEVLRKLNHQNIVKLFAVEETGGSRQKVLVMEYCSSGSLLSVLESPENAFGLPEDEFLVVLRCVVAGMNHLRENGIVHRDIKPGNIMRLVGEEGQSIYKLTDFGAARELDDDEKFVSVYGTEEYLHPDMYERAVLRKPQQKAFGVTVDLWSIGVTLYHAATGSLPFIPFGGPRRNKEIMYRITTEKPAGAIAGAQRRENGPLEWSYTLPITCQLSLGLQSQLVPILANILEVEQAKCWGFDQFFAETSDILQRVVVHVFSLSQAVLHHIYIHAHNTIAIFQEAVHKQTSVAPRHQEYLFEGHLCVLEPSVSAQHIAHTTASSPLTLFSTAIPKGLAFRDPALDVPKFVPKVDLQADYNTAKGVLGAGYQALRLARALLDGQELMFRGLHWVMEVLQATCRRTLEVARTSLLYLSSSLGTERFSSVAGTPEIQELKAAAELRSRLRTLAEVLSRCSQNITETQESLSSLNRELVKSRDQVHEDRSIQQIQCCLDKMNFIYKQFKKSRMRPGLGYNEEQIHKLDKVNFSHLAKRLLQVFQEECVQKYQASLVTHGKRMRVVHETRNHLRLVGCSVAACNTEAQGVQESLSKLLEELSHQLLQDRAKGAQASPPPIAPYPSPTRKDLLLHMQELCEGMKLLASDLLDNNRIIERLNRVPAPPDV
# Mus musculus [22] = test: Antiinflammatory activity against LPS-induced BALB/c mouse assessed as reduction in TNFalpha cytokine level at 10 mg/kg, po pretreated for 1 hr followed by LPS-stimulation and measured after 90mins by enzyme immunoassay; type: functional; design: scale not given: the % may be the effect or the level left; conditions: time 150 min, 2.5 h
# THP-1 [23] = test: Cytotoxicity against human THP-1 cells by trypan blue exclusion assay; type: toxicity, cell-based
# [24] = target: MAP kinase-activated protein kinase 2 (Homo sapiens) (UniProt P49137); test: Inhibition of LPS-stimulated MAPKAPK2 activation in human THP-1 cells at 100 uM using [33P]ATP as substrate pre incubated for 60 mins followed by LPS-stimulation for 30 mins; type: cell-based; conditions: time 90.0 min
# [25] = Cmax in BALB/c mouse at 10 mg/kg, po measured upto 8 hrs by LC-MS-MS analysis; type: ADME, organism-based; conditions: in vivo
# Homo sapiens = organism: Homo sapiens; test: Inhibition of recombinant human MAPK at 100 uM
# [26] = target: Signal transducer and activator of transcription 3 (Homo sapiens) (UniProt P40763); test: Inhibition of EGF-stimulated STAT3 phosphorylation in human NCI-H292 cells at 100 uM pre incubated for 60 mins followed by […] stimulation for 5 mins by immunoblot analysis; type: cell-based; conditions: time 65.0 min
# Chain of Signal transducer and activator of transcription 3 (Homo sapiens) (P40763 whole entry): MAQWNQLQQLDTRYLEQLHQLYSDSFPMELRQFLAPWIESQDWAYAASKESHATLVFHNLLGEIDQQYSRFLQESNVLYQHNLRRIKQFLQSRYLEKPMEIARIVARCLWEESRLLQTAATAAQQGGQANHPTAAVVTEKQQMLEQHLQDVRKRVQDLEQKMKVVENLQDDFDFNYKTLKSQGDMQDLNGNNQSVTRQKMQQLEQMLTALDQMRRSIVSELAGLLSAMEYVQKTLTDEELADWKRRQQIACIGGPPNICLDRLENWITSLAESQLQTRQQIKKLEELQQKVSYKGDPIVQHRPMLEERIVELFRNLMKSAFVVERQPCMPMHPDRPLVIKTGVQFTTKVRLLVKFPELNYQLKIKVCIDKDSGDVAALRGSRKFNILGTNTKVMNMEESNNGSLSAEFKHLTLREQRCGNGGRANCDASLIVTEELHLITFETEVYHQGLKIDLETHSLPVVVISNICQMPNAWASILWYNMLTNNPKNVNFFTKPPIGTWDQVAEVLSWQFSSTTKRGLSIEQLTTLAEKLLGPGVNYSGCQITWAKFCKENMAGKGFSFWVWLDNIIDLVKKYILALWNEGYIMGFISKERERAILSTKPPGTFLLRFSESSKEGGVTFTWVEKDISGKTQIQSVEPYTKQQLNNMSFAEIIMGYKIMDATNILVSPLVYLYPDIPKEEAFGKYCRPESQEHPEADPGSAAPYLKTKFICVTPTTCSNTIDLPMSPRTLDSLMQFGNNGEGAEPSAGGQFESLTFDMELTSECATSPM
# THP-1 [27] = test: Antiinflammatory activity against LPS-induced human THP-1 cells assessed as reduction in IL-6 cytokine level preincubated for 1 hr followed by LPS-stimulation and measured after 24 hrs by enzyme immunoassay; type: functional, cell-based
# THP-1 [28] = test: Antiinflammatory activity against LPS-induced human THP-1 cells assessed as reduction in IL-1beta cytokine level preincubated for 1 hr followed by LPS-stimulation and measured after 6 hrs by enzyme immunoassay; type: functional, cell-based
# [29] = target: Tyrosine-protein kinase Lck (Homo sapiens) (UniProt P06239); test: Inhibition of recombinant human LCK at 100 uM
# Chain of Tyrosine-protein kinase Lck (Homo sapiens) (P06239 2-509 limits assumed): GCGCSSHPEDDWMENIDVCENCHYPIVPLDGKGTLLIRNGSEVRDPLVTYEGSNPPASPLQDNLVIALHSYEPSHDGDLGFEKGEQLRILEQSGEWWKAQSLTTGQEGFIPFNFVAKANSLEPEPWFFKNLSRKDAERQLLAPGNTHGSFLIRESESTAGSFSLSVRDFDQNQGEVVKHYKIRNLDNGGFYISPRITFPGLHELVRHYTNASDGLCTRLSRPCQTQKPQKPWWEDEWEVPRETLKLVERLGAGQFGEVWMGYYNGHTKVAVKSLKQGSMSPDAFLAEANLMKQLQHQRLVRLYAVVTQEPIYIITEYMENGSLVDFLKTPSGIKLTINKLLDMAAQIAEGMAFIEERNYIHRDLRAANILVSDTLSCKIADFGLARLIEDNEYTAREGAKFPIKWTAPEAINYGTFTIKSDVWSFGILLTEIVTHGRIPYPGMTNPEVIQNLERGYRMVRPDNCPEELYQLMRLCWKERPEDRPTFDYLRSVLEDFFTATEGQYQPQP
smiles,measurement,setting,value
Cc1ccc2nc(NCCN)c3ncc(C)n3c2c1 [BMS-345541],Tmax,[1],0.52 h
same,inhibition,[2],inactive
same,inhibition,[3],inactive
same,inhibition,[4],inactive
same,clearance,[5],114 mL/min/kg
same,inhibition,[6],inactive
same,inhibition,[7],inactive
same,inhibition,[8],inactive
same,inhibition,[9],inactive
same,IC50,THP-1 [10],1000 nM
same,half-life,[11],2.2 h
same,solubility,[12],Soluble
same,bioavailability,[13],~100%
same,IC50,THP-1 [14],1000 nM
same,inhibition,[15],inactive
same,inhibition,[16],inactive
same,Activity,Mus musculus [17],Dose-Dependent Effect
same,inhibition,[18],inactive
same,Activity,Mus musculus [19],100%
same,Vd,[20],18.5 L/kg
same,inhibition,[21],inactive
same,Activity,Mus musculus [22],50%
same,Activity,THP-1 [23],Non-Toxic
same,inhibition,[24],inactive
same,Cmax,[25],1600 nM
same,inhibition,Homo sapiens,inactive
same,inhibition,[26],inactive
same,IC50,THP-1 [27],1000 nM
same,IC50,THP-1 [28],1000 nM
same,inhibition,[29],inactive

# From ChEMBL document CHEMBL5653595 (J Biol Chem, 2003)
